According to patent publication US6413947B1, “Anilide derivative, production and use thereof” (Takeda Chemical Industries, Ltd., priority 1997, dated 2002):

Row | melting point | Structure (SMILES)
1 | 212 to 213 °C | Cc1ccc(-c2ccc3c(c2)C=C(C(=O)Nc2ccc(C(O)CN4CCCCC4)cc2)CCO3)cc1 (stereo not shown) [Compound 145, N-(4—(1-hydroxy-2-piperidinoethyl)phenyl)-7—(4-methylphenyl)-2,3-dihydro-1-benzoxepine-4-carboxamide]
2 | 158 to 159 °C | CN(Cc1ccc(NC(=O)C2=Cc3cc(-c4cccnc4)ccc3OCC2)cc1)C1CCOCC1 [Compound 146, 7—(3-pyridyl)-N-(4—((N-tetrahydropyran-4-yl-N-methylamino)-methyl)phenyl)-2,3-dihydro-1-benzoxepine-4-carboxamide]
3 | 208 to 209 °C (dec.) | CN(C)c1ccc(-c2ccc3c(c2)C=C(C(=O)Nc2ccc(CN(C)C4CCOCC4)cc2)CCO3)cc1 [Compound 149, 7—(4-dimethylaminophenyl)-N-(4—((N-tetrahydropyran-4-yl-N-methylamino)methyl)phenyl)-2,3-dihydro-1-benzoxepine-4-carboxamide]
4 | 210 to 211 °C | CN(Cc1ccc(NC(=O)C2=Cc3cc(-c4ccc(N5CCCC5)cc4)ccc3OCC2)cc1)C1CCOCC1 [Compound 150, 7—(4—(pyrrolidin-1-yl)phenyl)-N-(4—((N-tetrahydropyran-4-yl-N-methylamino)-methyl)phenyl)-2,3-dihydro-1-benzoxepine-4-carboxamide]
5 | 194 to 195 °C | CN(Cc1ccc(NC(=O)C2=Cc3cc(-c4ccc(-n5ccnc5)cc4)ccc3OCC2)cc1)C1CCOCC1 [Compound 153, 7—(4—(1-imidazolyl)phenyl)-N-(4—((N-tetra-hydropyran-4-yl-N-methylamino)methyl)phenyl)-2,3-dihydro-1-benzoxepine-4-carboxamide]
6 | 293 to 294 °C (dec.) | CN(C)c1ccc(-c2ccc3c(c2)C=C(C(=O)Nc2ccc(CP4(=O)CCCCC4)cc2)CCO3)cc1 [Compound 154, 7—(4-dimethylaminophenyl)-N-(4—((1-oxophosphorinan-1-yl)methyl)phenyl)-2,3-dihydro-1-benzoxepine-4-carboxamide]
7 | 195 to 196 °C (dec.) | Cc1ccc(-c2ccc3c(c2)C=C(C(=O)Nc2ccc(C(=O)C4CCCCN4)cc2)CCO3)cc1 (stereo not shown) [Compound 156, N-(4—(piperidin-2-ylcarbonyl)phenyl)-7—(4-methylphenyl)-2,3-dihydro-1-benzoxepine-4-carboxamide]
8 | 228 to 229 °C | Cc1ccc(-c2ccc3c(c2)C=C(C(=O)Nc2ccc(-c4ccccn4)cc2)CCO3)cc1 [Compound 159, N-[4—(2-pyridyl)phenyl]-7—(4-methylphenyl)-2,3-dihydro-1-benzoxepine-4-carboxamide]
9 | 254 °C (dec.) | Cc1ccc(-c2ccc3c(c2)C=C(C(=O)Nc2ccc(-c4cccc[n+]4[O-])cc2)CCO3)cc1 [Compound 160, N-[4—(1-oxidopyridin-2-yl)phenyl]-7—(4-methylphenyl)-2,3-dihydro-1-benzoxepine-4-carboxamide]
10 | 189 to 190 °C | Cc1ccc(-c2ccc3c(c2)C=C(C(=O)Nc2ccc(Cc4ccccn4)cc2)CCO3)cc1 [Compound 161, N-[4—(2-pyridylmethyl)phenyl]-7—(4-methylphenyl)-2,3-dihydro-1-benzoxepine-4-carboxamide]
11 | 188 to 190 °C | Cc1ccc(-c2ccc3c(c2)C=C(C(=O)Nc2ccc(Cc4cccc[n+]4[O-])cc2)CCO3)cc1 [Compound 162, N-[4—(1-oxidopyridin-2-ylmethyl)phenyl]-7—(4-methylphenyl)-2,3-dihydro-1-benzoxepine-4-carboxamide]
12 | 240 to 241 °C | CCP(=O)(CC)Cc1ccc(NC(=O)C2=Cc3cc(-c4ccc(C)cc4)ccc3OCC2)cc1 [Compound 163, N-(4-diethylphosphorylmethylphenyl)-7—(4-methylphenyl)-2,3-dihydro-1-benzoxepine-4-carboxamide]
13 | 214 to 216 °C | Cc1ccc(-c2ccc3c(c2)C=C(C(=O)Nc2ccc(-c4cccnc4)cc2)CCO3)cc1 [Compound 164, N-[4—(3-pyridyl)phenyl]-7—(4-methylphenyl)-2,3-dihydro-1-benzoxepine-4-carboxamide]
14 | 262 °C (dec.) | Cc1ccc(-c2ccc3c(c2)C=C(C(=O)Nc2ccc(-c4ccc[n+]([O-])c4)cc2)CCO3)cc1 [Compound 165, N-[4—(1-oxidopyridin-3-yl)phenyl]-7—(4-methylphenyl)-2,3-dihydro-1-benzoxepine-4-carboxamide]
15 | 215 to 217 °C | Cc1ccc(-c2ccc3c(c2)C=C(C(=O)Nc2ccc(C(O)c4ccccn4)cc2)CCO3)cc1 (stereo not shown) [Compound 166, N-[4-[hydroxy(2-pyridyl)-methyl]phenyl]-7—(4-methylphenyl)-2,3-dihydro-1-benzoxepine-4-carboxamide]
16 | 208 to 210 °C | Cc1ccc(-c2ccc3c(c2)C=C(C(=O)Nc2ccc(C(O)c4cccc[n+]4[O-])cc2)CCO3)cc1 (stereo not shown) [Compound 167, N-[4-[hydroxy(1-oxidopyridin-2-yl)methyl]phenyl]-7—(4-methylphenyl)-2,3-dihydro-1-benzoxepine-4-carboxamide]
17 | 219 to 220 °C | CCCP(=O)(CCC)Cc1ccc(NC(=O)C2=Cc3cc(-c4ccc(C)cc4)ccc3OCC2)cc1 [Compound 168, N-(4-dipropylphosphorylmethylphenyl)-7—(4-methylphenyl)-2,3-dihydro-1-benzoxepine-4-carboxamide]

Row | melting point | Structure (SMILES)
18 | 232 to 233 °C | COc1cccnc1C(O)c1ccc(NC(=O)C2=Cc3cc(-c4ccc(C)cc4)ccc3OCC2)cc1 (stereo not shown) [Compound 169, N-[4-[hydroxy(3-methoxy-pyridin-2-yl)methyl]phenyl]-7—(4-methylphenyl)-2,3-dihydro-1-benzoxepine-4-carboxamide]
19 | 242 °C (dec.) | COc1ccc[n+]([O-])c1C(O)c1ccc(NC(=O)C2=Cc3cc(-c4ccc(C)cc4)ccc3OCC2)cc1 (stereo not shown) [Compound 170, N-[4-[hydroxy(3-methoxy-1-oxidopyridin-2-yl)methyl]phenyl]-7—(4-methylphenyl)-2,3-dihydro-1-benzoxepine-4-carboxamide]
20 | 206 to 208 °C | COCOc1ccc[n+]([O-])c1Cc1ccc(NC(=O)C2=Cc3cc(-c4ccc(C)cc4)ccc3OCC2)cc1 [Compound 173, N-[4—(1-oxido-3-methoxymethoxypyridin-2-ylmethyl)phenyl]-7—(4-methylphenyl)-2,3-dihydro-1-benzoxepine-4-carboxamide]
21 | 285 to 288 °C | Cc1ccc(-c2ccc3c(c2)C=C(C(=O)Nc2ccc(Cc4ncccc4O)cc2)CCO3)cc1 [Compound 174, N-[4—(3-hydroxypyridin-2-ylmethyl)phenyl]-7—(4-methylphenyl)-2,3-dihydro-1-benzoxepine-4-carboxamide]
22 | 254 °C (dec.) | Cc1ccc(-c2ccc3c(c2)C=C(C(=O)Nc2ccc(Cc4c(O)ccc[n+]4[O-])cc2)CCO3)cc1 [Compound 175, N-[4—(1-oxido-3-hydroxypyridin-2-ylmethyl)phenyl]-7—(4-methylphenyl)-2,3-dihydro-1-benzoxepine-4-carboxamide]
23 | 181 to 182 °C | CCc1ccc(-c2ccc3c(c2)C=C(C(=O)Nc2ccc(CN(C)C4CCOCC4)cc2)CCO3)cc1 [Compound 177, N-[4-[N-methyl-N-(tetrahydropyran-4-yl)aminomethyl]phenyl]-7—(4-ethylphenyl)-2,3-dihydro-1-benzoxepine-4-carboxamide]
24 | 193 to 194 °C | CN(Cc1ccc(NC(=O)C2=Cc3cc(-c4ccc(C(C)(C)C)cc4)ccc3OCC2)cc1)C1CCOCC1 [Compound 179, N-[4-[N-methyl-N-(tetrahydropyran-4-yl)aminomethyl]phenyl]-7—(4-tert-butylphenyl)-2,3-dihydro-1-benzoxepine-4-carboxamide]
25 | 191 to 192 °C | CN(Cc1ccc(NC(=O)C2=Cc3cc(-c4ccc(Cl)cc4)ccc3OCC2)cc1)C1CCOCC1 [Compound 181, N-[4-[N-methyl-N-(tetrahydropyran-4-yl)aminomethyl]-phenyl]-7—(4-chlorophenyl)-2,3-dihydro-1-benzoxepine-4-carboxamide]
26 | 174 to 176 °C | CCOc1ccc(-c2ccc3c(c2)C=C(C(=O)Nc2ccc(CN(C)C4CCOCC4)cc2)CCO3)cc1 [Compound 185, 7—(4-ethoxyphenyl)-N-(4-[N-methyl-N-(tetrahydropyran-4-yl)aminomethyl]phenyl]-2,3-dihydro-1-benzoxepine-4-carboxamide]
27 | 187 to 188 °C | CN(Cc1ccc(NC(=O)C2=Cc3cc(-c4ccc(OC(F)(F)F)cc4)ccc3OCC2)cc1)C1CCOCC1 [Compound 186, N-[4-[N-methyl-N-(tetrahydropyran-4-yl)aminomethyl]phenyl]-7—(4-trifluoromethoxyphenyl)-2,3-dihydro-1-benzoxepine-4-carboxamide]
28 | 197 to 198 °C | CCP(=O)(CC)Cc1ccc(NC(=O)/C=C/c2cccc(-c3ccc(C)cc3)c2)cc1 [Compound 187, (E)-N-(4-diethylphosphorylmethylphenyl)-3—(4-methylphenyl)cinnamamide]
29 | 220 to 222 °C | Cc1ccc(-c2cccc(/C=C/C(=O)Nc3ccc(-c4ccccn4)cc3)c2)cc1 [Compound 188, (E)-N-[4—(2-pyridyl)phenyl]-3—(4-methylphenyl)cinnamamide]
30 | 240 to 241 °C | Cc1ccc(-c2cccc(/C=C/C(=O)Nc3ccc(-c4cccc[n+]4[O-])cc3)c2)cc1 [Compound 189, (E)-N-[4—(1-oxidopyridin-2-yl)phenyl]-3—(4-methylphenyl)cinnamamide]
31 | 169 to 171 °C | Cc1ccc(-c2cccc(/C=C/C(=O)Nc3ccc(Cc4ccccn4)cc3)c2)cc1 [Compound 190, (E)-N-[4—(2-pyridylmethyl)phenyl]-3—(4-methylphenyl)cinnamamide]
32 | 183 to 185 °C | Cc1ccc(-c2cccc(/C=C/C(=O)Nc3ccc(Cc4cccc[n+]4[O-])cc3)c2)cc1 [Compound 191, (E)-N-[4—(1-oxidopyridin-2-ylmethyl)phenyl]-3—(4-methylphenyl)cinnamamide]
33 | 213 to 214 °C | Cc1ccc(-c2cccc(/C=C/C(=O)Nc3ccc(-c4cccnc4)cc3)c2)cc1 [Compound 192, (E)-N-[4—(3-pyridyl)phenyl]-3—(4-methylphenyl)cinnamamide]
34 | 225 to 227 °C | CCCP(=O)(CCC)Cc1ccc(NC(=O)/C=C/c2cccc(-c3ccc(C)cc3)c2)cc1 [Compound 194, (E)-N-(4-dipropylphosphorylmethylphenyl)-3—(4-methylphenyl)cinnamamide]
